Results reported in ChEMBL document CHEMBL4627275, “Inhibition of cholesteryl ester synthesis by polyacetylenes from Atractylodes rhizome” (Bioorg Med Chem Lett, 2020).
Active and inactive are the calls of the source. No cut-off for these calls is given here.

Key:
[1] = test system: CHO-K1; assay: Inhibition of [14C]triglyceride biosynthesis in CHOK1 cells using [14C]Oleic acid as substrate after 6 hrs by TLC method; format: functional, cell-based; details: Cricetulus griseus, CHO-K1, 6 h
[2] = test system: CHO-K1; assay: Effect on lipid droplet accumulation in CHOK1 cells at >100 uM preincubated with oleic acid for 12 hrs followed by replacement of fresh medium containing compounds and measured after 6 hrs by oil red O staining based confocal laser scanning microscopy; format: functional, cell-based; details: Cricetulus griseus
[3] = test system: CHO-K1; assay: (§1) Inhibition of SOAT in CHOK1 microsomes; details: Cricetulus griseus
[4] = as §1; set-up: species or system Cricetulus griseus; details: cho-k1
[5] = molecular target: T1, Sterol O-acyltransferase 1 (Homo sapiens, UniProt P35610); assay: Inhibition of human SOAT1 mediated [14C]Cholesterol ester synthesis in CHO cells after 6 hrs in presence of [14C]Oleic acid by TLC analysis; format: cell-based
T1 sequence (P35610 whole entry): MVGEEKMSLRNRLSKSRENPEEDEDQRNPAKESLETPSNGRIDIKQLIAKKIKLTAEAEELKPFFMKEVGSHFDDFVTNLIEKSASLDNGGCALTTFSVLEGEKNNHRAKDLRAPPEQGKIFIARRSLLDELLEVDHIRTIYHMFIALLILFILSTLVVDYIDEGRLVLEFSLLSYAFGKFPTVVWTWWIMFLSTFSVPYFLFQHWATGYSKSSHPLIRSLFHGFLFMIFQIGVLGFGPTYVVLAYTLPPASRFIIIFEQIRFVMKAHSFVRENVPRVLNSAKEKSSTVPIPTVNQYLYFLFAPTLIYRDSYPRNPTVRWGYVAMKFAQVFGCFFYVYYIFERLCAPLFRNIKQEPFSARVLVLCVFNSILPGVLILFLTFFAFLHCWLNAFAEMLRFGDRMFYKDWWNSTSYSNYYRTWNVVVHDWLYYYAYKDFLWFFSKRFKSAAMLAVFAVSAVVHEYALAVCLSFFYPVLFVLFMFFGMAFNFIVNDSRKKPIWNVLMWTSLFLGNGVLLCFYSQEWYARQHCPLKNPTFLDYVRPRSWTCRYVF

[6] = test system: CHO-K1; assay: Inhibition of [14C]cholesterol ester biosynthesis in CHOK1 cells using [14C]Oleic acid as substrate after 6 hrs by TLC method; format: functional, cell-based; details: Cricetulus griseus, CHO-K1, 6 h
[7] = test system: CHO-K1; assay: Cytotoxicity against CHOK1 cells assessed as reduction in cell viability; format: cell-based; details: Cricetulus griseus
[8] = molecular target: T1, Sterol O-acyltransferase 1; assay: Inhibition of human SOAT1-mediated [14C]Cholesterol ester biosynthesis in CHO microsomal fraction after 5 mins in presence of [1-14C]oleoyl-CoA by TLC analysis
[9] = molecular target: T2, Sterol O-acyltransferase 2 (Homo sapiens, UniProt O75908); assay: Inhibition of human SOAT2-mediated [14C]Cholesterol ester synthesis in CHO cells after 6 hrs in presence of [14C]Oleic acid by TLC analysis; format: cell-based
T2 sequence (O75908 whole entry): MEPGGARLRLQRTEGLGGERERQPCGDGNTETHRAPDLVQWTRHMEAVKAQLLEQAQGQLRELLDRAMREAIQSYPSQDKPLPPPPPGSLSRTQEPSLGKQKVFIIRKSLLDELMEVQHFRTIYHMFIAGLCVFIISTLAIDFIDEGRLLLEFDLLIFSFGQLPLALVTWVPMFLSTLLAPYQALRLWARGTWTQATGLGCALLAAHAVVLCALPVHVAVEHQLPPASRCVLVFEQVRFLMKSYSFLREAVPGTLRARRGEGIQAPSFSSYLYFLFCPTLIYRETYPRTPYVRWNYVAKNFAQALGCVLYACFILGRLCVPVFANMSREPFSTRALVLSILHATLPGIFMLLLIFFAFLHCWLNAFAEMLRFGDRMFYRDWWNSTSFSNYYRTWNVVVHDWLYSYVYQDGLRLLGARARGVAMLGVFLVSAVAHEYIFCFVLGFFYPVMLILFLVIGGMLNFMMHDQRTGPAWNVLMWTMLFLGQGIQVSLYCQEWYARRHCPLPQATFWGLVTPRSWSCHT

[10] = molecular target: T2, Sterol O-acyltransferase 2; assay: Inhibition of human SOAT2-mediated [14C]Cholesterol ester biosynthesis in CHO microsomal fraction after 5 mins in presence of [1-14C]oleoyl-CoA by TLC analysis

inhibition [3]	IC50 [4]	IC50 [5]	IC50 [8]	IC50 [9]	IC50 [10]	Compound	IC50 [1]	Activity [2]	IC50 [6]	IC50 [7]
Dose-dependent effect	29 µM	32.8 µM	4.7 µM	36.2 µM	11.5 µM	CC(=O)OCCC(/C=C/C=C/C#CC#C/C=C/CO)OC(=O)C=C(C)C (configuration not stated)	> 136 µM	inactive	35.4 µM	111 µM
	211 µM			187 µM	101 µM	C=C1CCC[C@]2(C)C[C@]3(O)OC(=O)C(C)=C3C[C@@H]12 [ATRACTYLENOLIDE III]	> 195 µM	inactive	73.5 µM	> 195 µM
